Measured values as given in patent US6627734B1 (dated 2003).

Tested on: expressed full length clones containing these insertions (KOR-3a, KOR-3b, KOR-3c)
Experiment: Preliminary binding of [3H]naloxone benzoylhydrazone to expressed full length KOR-3 splice variant clones
Parameters: species or system mouse
Settings: preliminary studies; expressed full length clones with mini-exon insertions (KOR-3a, KOR-3b, KOR-3c); radioligand

## C=CCN1CC[C@]23c4c5ccc(O)c4O[C@H]2/C(=N/NC(=O)c2ccccc2)CC[C@@]3(O)[C@H]1C5 [[^3H]naloxone benzolhydrazone]
  binding of the kappa3 ligand by the expressed full length clones: quite well
